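Tested at 5 concentrations; 48 h exposure; 96-well plates; endpoints linearly interpolated, else capped at highest concentration. TGI: concentration producing complete growth inhibition.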
Legend:
Assay in all cases: NCI tumour cell line growth inhibition, 48 h
SF-295 CNS = system: SF-295 CNS
DMS 114 small cell lung = system: DMS 114 small cell lung
CCRF-CEM leukemia = system: CCRF-CEM leukemia
HT29 colon = system: HT29 colon
DLD-1 colon = system: DLD-1 colon
HCC-2998 colon = system: HCC-2998 colon
SR leukemia = system: SR leukemia
KM12 colon = system: KM12 colon
MALME-3M melanoma = system: MALME-3M melanoma
HCT-15 colon = system: HCT-15 colon
M19-MEL melanoma = system: M19-MEL melanoma
COLO 205 colon = system: COLO 205 colon
CAKI-1 renal = system: CAKI-1 renal
ACHN renal = system: ACHN renal
NCI-H226 lung = system: NCI-H226 lung
U251 CNS = system: U251 CNS
RXF 393 renal = system: RXF 393 renal
SK-MEL-5 melanoma = system: SK-MEL-5 melanoma
SF-539 CNS = system: SF-539 CNS
786-0 renal = system: 786-0 renal
RPMI-8226 leukemia = system: RPMI-8226 leukemia
OVCAR-4 ovarian = system: OVCAR-4 ovarian
DMS 273 small cell lung = system: DMS 273 small cell lung
SK-MEL-28 melanoma = system: SK-MEL-28 melanoma
HOP-62 NSCLC = system: HOP-62 NSCLC
IGROV1 ovarian = system: IGROV1 ovarian
SF-268 CNS = system: SF-268 CNS
RXF-631 renal = system: RXF-631 renal
MOLT-4 leukemia = system: MOLT-4 leukemia
LXFL 529 NSCLC = system: LXFL 529 NSCLC
SNB-78 CNS = system: SNB-78 CNS
OVCAR-3 ovarian = system: OVCAR-3 ovarian
SN12C renal = system: SN12C renal
SNB-19 CNS = system: SNB-19 CNS
NCI-H23 lung = system: NCI-H23 lung
KM20L2 colon = system: KM20L2 colon
UO-31 renal = system: UO-31 renal
UACC-62 melanoma = system: UACC-62 melanoma
M14 melanoma = system: M14 melanoma
SK-MEL-2 melanoma = system: SK-MEL-2 melanoma
HOP-18 NSCLC = system: HOP-18 NSCLC
UACC-257 melanoma = system: UACC-257 melanoma
K-562 leukemia = system: K-562 leukemia
NCI-H460 lung = system: NCI-H460 lung
A549 NSCLC = system: A549 NSCLC
HCT-116 colon = system: HCT-116 colon
NCI-H522 lung = system: NCI-H522 lung
SNB-75 CNS = system: SNB-75 CNS
SW-620 colon = system: SW-620 colon
LOX IMVI melanoma = system: LOX IMVI melanoma
TK-10 renal = system: TK-10 renal
OVCAR-8 ovarian = system: OVCAR-8 ovarian
OVCAR-5 ovarian = system: OVCAR-5 ovarian
A498 renal = system: A498 renal
HL-60(TB) leukemia = system: HL-60(TB) leukemia
SK-OV-3 ovarian = system: SK-OV-3 ovarian
EKVX NSCLC = system: EKVX NSCLC
HOP-92 NSCLC = system: HOP-92 NSCLC
XF 498 CNS = system: XF 498 CNS

CS(=O)(=O)c1ccc(-c2cc(-c3ccc(S(C)(=O)=O)cc3)[n+](-c3cc(-c4ccc(S(C)(=O)=O)cc4)c([O-])c(-c4ccc(S(C)(=O)=O)cc4)c3)c(-c3ccc(S(C)(=O)=O)cc3)c2)cc1
TGI (SF-295 CNS): > 100 µM | TGI (DMS 114 small cell lung): > 100 µM | TGI (CCRF-CEM leukemia): > 100 µM | TGI (HT29 colon): > 100 µM | TGI (DLD-1 colon): > 100 µM | TGI (HCC-2998 colon): > 100 µM | TGI (SR leukemia): > 100 µM | TGI (KM12 colon): > 100 µM | TGI (MALME-3M melanoma): > 100 µM | TGI (HCT-15 colon): > 100 µM | TGI (M19-MEL melanoma): > 100 µM | TGI (COLO 205 colon): > 100 µM | TGI (CAKI-1 renal): > 100 µM | TGI (ACHN renal): > 100 µM | TGI (NCI-H226 lung): > 100 µM | TGI (U251 CNS): > 100 µM | TGI (RXF 393 renal): > 100 µM | TGI (SK-MEL-5 melanoma): > 100 µM | TGI (SF-539 CNS): > 100 µM | TGI (786-0 renal): > 100 µM | TGI (RPMI-8226 leukemia): > 100 µM | TGI (OVCAR-4 ovarian): > 100 µM | TGI (DMS 273 small cell lung): > 100 µM | TGI (SK-MEL-28 melanoma): > 100 µM | TGI (HOP-62 NSCLC): > 100 µM | TGI (IGROV1 ovarian): > 100 µM | TGI (SF-268 CNS): > 100 µM | TGI (RXF-631 renal): > 100 µM | TGI (MOLT-4 leukemia): > 100 µM | TGI (LXFL 529 NSCLC): > 100 µM | TGI (SNB-78 CNS): > 100 µM | TGI (OVCAR-3 ovarian): > 100 µM | TGI (SN12C renal): > 100 µM | TGI (SNB-19 CNS): > 100 µM | TGI (NCI-H23 lung): > 100 µM | TGI (KM20L2 colon): > 100 µM | TGI (UO-31 renal): > 100 µM | TGI (UACC-62 melanoma): > 100 µM | TGI (M14 melanoma): > 100 µM | TGI (SK-MEL-2 melanoma): > 100 µM | TGI (HOP-18 NSCLC): > 100 µM | TGI (UACC-257 melanoma): > 100 µM | TGI (K-562 leukemia): > 100 µM | TGI (NCI-H460 lung): > 100 µM | TGI (A549 NSCLC): > 100 µM | TGI (HCT-116 colon): > 100 µM | TGI (NCI-H522 lung): > 100 µM | TGI (SNB-75 CNS): > 100 µM | TGI (SW-620 colon): > 100 µM | TGI (LOX IMVI melanoma): > 100 µM | TGI (TK-10 renal): > 100 µM | TGI (OVCAR-8 ovarian): > 100 µM | TGI (OVCAR-5 ovarian): > 100 µM

O=C1NC(=O)C2C(=O)NC(=O)C1C2c1c(Cl)cccc1Cl (stereo unspecified)
TGI (SF-295 CNS): > 100 µM | TGI (DMS 114 small cell lung): > 53.5 µM | TGI (CCRF-CEM leukemia): > 69.6 µM | TGI (HT29 colon): > 100 µM | TGI (DLD-1 colon): > 60.8 µM | TGI (HCC-2998 colon): > 100 µM | TGI (SR leukemia): > 100 µM | TGI (KM12 colon): > 100 µM | TGI (MALME-3M melanoma): > 100 µM | TGI (HCT-15 colon): > 100 µM | TGI (COLO 205 colon): > 56.3 µM | TGI (CAKI-1 renal): > 100 µM | TGI (ACHN renal): > 100 µM | TGI (NCI-H226 lung): > 100 µM | TGI (U251 CNS): > 100 µM | TGI (RXF 393 renal): 98.1 µM | TGI (A498 renal): > 100 µM | TGI (SK-MEL-5 melanoma): > 100 µM | TGI (SF-539 CNS): > 100 µM | TGI (HL-60(TB) leukemia): > 63.4 µM | TGI (786-0 renal): > 100 µM | TGI (RPMI-8226 leukemia): > 67.2 µM | TGI (OVCAR-4 ovarian): > 100 µM | TGI (DMS 273 small cell lung): > 57.5 µM | TGI (SK-MEL-28 melanoma): > 100 µM | TGI (HOP-62 NSCLC): > 100 µM | TGI (IGROV1 ovarian): > 100 µM | TGI (SF-268 CNS): > 96.7 µM | TGI (RXF-631 renal): > 100 µM | TGI (MOLT-4 leukemia): > 100 µM | TGI (LXFL 529 NSCLC): > 100 µM | TGI (SNB-78 CNS): > 100 µM | TGI (SK-OV-3 ovarian): > 100 µM | TGI (OVCAR-3 ovarian): > 100 µM | TGI (SN12C renal): > 100 µM | TGI (SNB-19 CNS): > 100 µM | TGI (NCI-H23 lung): > 100 µM | TGI (KM20L2 colon): > 83.6 µM | TGI (EKVX NSCLC): > 100 µM | TGI (UO-31 renal): > 100 µM | TGI (UACC-62 melanoma): > 100 µM | TGI (M14 melanoma): > 100 µM | TGI (SK-MEL-2 melanoma): > 100 µM | TGI (HOP-18 NSCLC): > 100 µM | TGI (UACC-257 melanoma): > 100 µM | TGI (K-562 leukemia): > 71.7 µM | TGI (HOP-92 NSCLC): > 100 µM | TGI (NCI-H460 lung): > 58.2 µM | TGI (A549 NSCLC): > 100 µM | TGI (HCT-116 colon): > 58.8 µM | TGI (NCI-H522 lung): > 100 µM | TGI (SNB-75 CNS): > 100 µM | TGI (XF 498 CNS): > 100 µM | TGI (SW-620 colon): > 47.1 µM | TGI (LOX IMVI melanoma): > 57.4 µM | TGI (TK-10 renal): > 100 µM | TGI (OVCAR-8 ovarian): > 100 µM | TGI (OVCAR-5 ovarian): > 100 µM

Reference: PubChem BioAssay (NCI)
